In US20260217701A1, “SELECTIVE BET INHIBITORS AND USES THEREOF” (Tay Therapeutics Limited, priority 2022, published 2026):
Several values for one entry are separate records, joined by “and”; a condition that tells them apart may be missing. Equal entries are not always repeated. Where two headings read alike, the source gives them in different places.

Tests used:
[1] = CIA study: pharmacokinetics / plasma concentration after oral administration; assay type: in vivo, Lewis rats; settings: for concentration at 6 h / concentration at 8 h / concentration at 0.25 h / concentration at 0.5 h / concentration at 1 h / concentration at 2 h / concentration at 4 h / concentration at 24 h / Plasma Concentration: 3 mg/kg, oral 3 mg/kg
[2] = test system: idiopathic pulmonary fibrosis (bleomycin); experiment: Bleomycin IPF model: lung histology, Masson's Trichrome with Ashcroft scoring; assay type: in vivo, C57BI/6J mice; settings: for Ashcroft scores relative to IPF control group: Day 21
Protocol: Animals were acclimated for two weeks prior to study initiation, and were randomized into the experimental groups outlined in Table 32. Intratracheal (IT) administration of Bleo or PBS control was conducted at the start of the study (Day 0). […] Following administration of Bleo, animals (n=10/group) were included in the study if they met the following guidelines on Day 7: […] A resection of the right lung was weighed and homogenized to determine total hydroxyproline levels by colorimetric assay, and the remaining lung lysate was saved for future analyses. For the morphological assessments, the left lung was inflation-fixed at 25 cm of water pressure with 4% paraformaldehyde in PBS for 1 minute, processed, and then sectioned. Morphological analysis of the lung was conducted using H&E-stained slides. Additional histologic stains for morphological analyses included Masson's Trichrome staining with Ashcroft scoring to determine severity of fibrosis.

[3] = test system: gastrointestinal mucosa / goblet cells; experiment: Gastrointestinal histopathology (Dog PK Study #4); assay type: in vivo; settings: healthy beagle dogs; 10 mg/kg; Day 15
Protocol: Oral pan-BD BET inhibitors are known to negatively impact gastrointestinal mucosa through goblet cell toxicity, leading to related gastrointestinal adverse events in the clinic (Faivre et al., Nature, 578:306-310 (2020)). Therefore, the impact of Compound A on gastrointestinal toxicity and the mucosa was assessed in healthy beagle dogs as part of Dog PK Study #4, outlined in Experimental Method B.
Following completion of Dog PK study #4 on Day 15, animals were euthanized, and the large and small intestines were collected and fixed in 10% neutral buffered formalin. The tissues were then removed from the fixative, processed, embedded in paraffin, sectioned, and stained with hematoxylin and eosin, prior to microscopic examination.

[4] = Bleo + Compound A (1 mg/kg) OG QOD from D7
[5] = Bleo + Compound A (3 mg/kg) OG QOD from D7
[6] = Bleo + Compound A (10 mg/kg) OG QOD from D7

## Cn1cc(-c2ccccc2)c(-c2cn(C)c(=O)c3[nH]c(-c4cnn(C(F)(F)F)c4)cc23)cc1=O [Compound A, 6-methyl-4-(1-methyl-2-oxo-5-phenyl-1,2-dihydropyridin-4-yl)-2-(1-(trifluoromethyl)-1H-pyrazol-4-yl)-1,6-dihydro-7H-pyrrolo[2,3-c]pyridin-7-one]
[1]; Lewis, rat, plasma, po, day 0, 6 h, individual test subjects, read-out: Plasma concentration
  concentration at 6 h: 123 ng/mL
[1]; Lewis, rat, plasma, po, day 0, 8 h, individual test subjects, read-out: Plasma concentration
  concentration at 8 h: 119 ng/mL
[1]; Lewis, rat, plasma, po, day 0, time 0.25, read-out: Mean Concentration (average plasma concentration)
  concentration at 0.25 h: 16.8 ng/mL
[1]; Lewis, rat, plasma, po, day 0, time 0.5, read-out: Mean Concentration (average plasma concentration)
  concentration at 0.5 h: 28.1 ng/mL
[1]; Lewis, rat, plasma, po, day 0, time 1, read-out: Mean Concentration (average plasma concentration)
  concentration at 1 h: 51.1 ng/mL
[1]; Lewis, rat, plasma, po, day 0, time 2, read-out: Mean Concentration (average plasma concentration)
  concentration at 2 h: 79 ng/mL
[1]; Lewis, rat, plasma, po, day 0, time 4, read-out: Mean Concentration (average plasma concentration)
  concentration at 4 h: 90 ng/mL
[1]; Lewis, rat, plasma, po, day 0, time 6, read-out: Mean Concentration (average plasma concentration)
  concentration at 6 h: 94 ng/mL
[1]; Lewis, rat, plasma, po, day 0, time 8, read-out: Mean Concentration (average plasma concentration)
  concentration at 8 h: 90 ng/mL
[1]; Lewis, rat, plasma, po, day 0, time 24
  concentration at 24 h: 22.3 ng/mL
[1]; Lewis, rat, plasma, po, day 21, 0.25 h, individual test subjects, read-out: Plasma concentration
  concentration at 0.25 h: 18.4 ng/mL
[1]; Lewis, rat, plasma, po, day 21, 0.5 h, individual test subjects, read-out: Plasma concentration
  concentration at 0.5 h: 22.2 ng/mL
[1]; Lewis, rat, plasma, po, day 21, 1 h, individual test subjects, read-out: Plasma concentration
  concentration at 1 h: 33.6 ng/mL
[1]; Lewis, rat, plasma, po, day 21, 2 h, individual test subjects, read-out: Plasma concentration
  concentration at 2 h: 33 ng/mL
[1]; Lewis, rat, plasma, po, day 21, 4 h, individual test subjects, read-out: Plasma concentration
  concentration at 4 h: 48.3 ng/mL
[1]; Lewis, rat, plasma, po, day 21, 6 h, individual test subjects, read-out: Plasma concentration
  concentration at 6 h: 44.2 ng/mL
[1]; Lewis, rat, plasma, po, day 21, 8 h, individual test subjects, read-out: Plasma concentration
  concentration at 8 h: 30.9 ng/mL
[1]; Lewis, rat, plasma, po, day 21, time 0.25, read-out: Mean Concentration (average plasma concentration)
  concentration at 0.25 h: 15.4 ng/mL
[1]; Lewis, rat, plasma, po, day 21, time 0.5, read-out: Mean Concentration (average plasma concentration)
  concentration at 0.5 h: 21 ng/mL
[1]; Lewis, rat, plasma, po, day 21, time 1, read-out: Mean Concentration (average plasma concentration)
  concentration at 1 h: 28.7 ng/mL
[1]; Lewis, rat, plasma, po, day 21, time 2, read-out: Mean Concentration (average plasma concentration)
  concentration at 2 h: 37.5 ng/mL
[1]; Lewis, rat, plasma, po, day 21, time 4, read-out: Mean Concentration (average plasma concentration)
  concentration at 4 h: 45.8 ng/mL
[1]; Lewis, rat, plasma, po, day 21, time 6, read-out: Mean Concentration (average plasma concentration)
  concentration at 6 h: 47 ng/mL
[1]; Lewis, rat, plasma, po, day 21, time 8, read-out: Mean Concentration (average plasma concentration)
  concentration at 8 h: 40.6 ng/mL
[1]; Lewis, rat, plasma, po, day 21, time 24
  concentration at 24 h: 12.2 ng/mL
[1]; Lewis, rat, plasma, po, CIA-induced animals, day 21, 3 mg/kg, average, read-out: AUClnf (Mean)
  AUC: 904 ng·h/mL
[1]; day 0, 0.25 h, individual test subjects
  Plasma Concentration: 28.7 ng/mL and 12.9 ng/mL and 8.85 ng/mL
[1]; day 0, 0.5 h, individual test subjects
  Plasma Concentration: 39.3 ng/mL and 25.4 ng/mL and 19.5 ng/mL
[1]; day 0, 1 h, individual test subjects
  Plasma Concentration: 78.4 ng/mL and 40.1 ng/mL and 34.7 ng/mL
[1]; day 0, 2 h, individual test subjects
  Plasma Concentration: 66.0 ng/mL and 62.7 ng/mL
[1]; day 0, 4 h, individual test subjects
  Plasma Concentration: 77.9 ng/mL and 80.7 ng/mL
[1]; day 0, 6 h, individual test subjects
  Plasma Concentration: 77.1 ng/mL and 82.6 ng/mL
[1]; day 0, 8 h, individual test subjects
  Plasma Concentration: 76.1 ng/mL and 74.4 ng/mL
[1]; day 0, 24 h, individual test subjects
  Plasma Concentration: 35.6 ng/mL and 14.1 ng/mL and 17.3 ng/mL
[1]; day 21, 0.25 h, individual test subjects
  Plasma Concentration: 14.7 ng/mL and 13.1 ng/mL
[1]; day 21, 0.5 h, individual test subjects
  Plasma Concentration: 20.9 ng/mL and 19.8 ng/mL
[1]; day 21, 1 h, individual test subjects
  Plasma Concentration: 27.0 ng/mL and 25.5 ng/mL
[1]; day 21, 2 h, individual test subjects
  Plasma Concentration: 45.6 ng/mL and 33.8 ng/mL
[1]; day 21, 4 h, individual test subjects
  Plasma Concentration: 44.3 ng/mL and 44.7 ng/mL
[1]; day 21, 6 h, individual test subjects
  Plasma Concentration: 51.2 ng/mL and 45.7 ng/mL
[1]; day 21, 8 h, individual test subjects
  Plasma Concentration: 45.6 ng/mL and 45.3 ng/mL
[1]; day 21, 24 h, individual test subjects
  Plasma Concentration: 6.60 ng/mL and 15.6 ng/mL and 14.4 ng/mL
[2]; [4]
  Ashcroft Scoring, Max: 7
  Ashcroft Scoring, Mean: 5.25
  Ashcroft Scoring, Min: 4
[2]; [5]
  Ashcroft Scoring, Max: 5
  Ashcroft Scoring, Mean: 4.416
  Ashcroft Scoring, Min: 3
[2]; [6]
  Ashcroft Scoring, Max: 5
  Ashcroft Scoring, Mean: 3.708
  Ashcroft Scoring, Min: 2
[2]; 1, 3, 10 mg/kg
  Ashcroft scores relative to IPF control group: decreased Ashcroft scores
[2]; Group 5, 10 mg/kg
  Ashcroft scores relative to IPF control group: significantly reduced Ashcroft scores
[2]; Group 5 (Compound A 10) and Group 6 (Pirfenidone)
  Fibrosis in lung tissue (Masson's Trichrome) compared to Group 2 (Bleo+Saline): qualitatively diminished
[3]
  Effect on gastrointestinal villus morphology or goblet cell number: no deleterious effect
